Results: article PMC9562342, “Structural and functional analysis of EntV reveals a 12 amino acid fragment protective against fungal infections” (Nature Communications, 2022)
Where “and” joins values, the source holds several entries; their conditions need not be identical. Identical values can stand only once. Entries after “also recorded” stand apart in the source; their conditions may differ. Like-named read-outs stand apart in the source and are kept apart here. No end group written: not given here.

Columns and labels:
C. albicans AzR = format: in vivo, Candida albicans; settings: C. albicans AzR infected C. elegans, peptides 1 nM, fluconazole 4 ug/ml, Fig 4D
C. albicans AzS = experiment: C. elegans killing assay, C. albicans paired clinical isolate before fluconazole resistance (Az^S); format: in vivo, Candida albicans
C. albicans [1] = experiment: C. elegans killing assay, C. albicans infection; settings: 1 nM peptide; for Median survival: C. albicans infected C. elegans
Protocol: C. elegans glp-4(bn2); sek-1(km-4)[48] nematodes were propagated and maintained on E. coli strain OP50[50] that was seeded onto nematode growth medium (NGM) agar using standard techniques (Hope, 1999). To synchronize the animals, L1 stage worms on non-starved plates were washed off, filtered through a 10 μm filter (pluriSelect, pluriStrainer 10 μm), harvested by centrifugation at 750 xg for 30 seconds, transferred to OP50 seeded plates, and grown to the L4 stage. To prepare the infection plates, Fungal strains were grown in YPD broth for 24 h at 37 °C with agitation. 500 μl of the culture was plated onto BHI solid medium containing gentamycin (10 μg/ml) and grown for 24 h at 37 °C. The synchronized, L4 C. elegans were washed off the OP50 plates in 2 ml sterile M9 buffer and washed once, centrifuging at 750 xg for 30 seconds to collect animals. Animals were infected by placing them on the fungal lawn for 4 h at 25 °C. Following this exposure, they were washed off the plate and washed four times with 2 ml of sterile M9. The nematodes were then pipetted (~30 per well with two wells per condition for a total of ~60 worms assayed) into six-well plates with 2 ml of liquid medium (20% BHI broth and 80% M9) containing the indicated concentrations of test compounds. Plates were incubated at 25 °C, and worm death was scored daily. Kaplan–Meier survival curves were generated and analyzed as described in the quantification and statistical analysis section.

[2] = Solubility of peptides (biophysical characteristics); format: physicochemical
Source text: Supplement 41467_2022_33613_MOESM1_ESM.docx, table 2: Supplementary Table 2. Biophysical characteristics of peptides. | column: Solubility

C. albicans [3] = experiment: Intravenous infection model (disseminated candidiasis); format: in vivo, mouse; settings: C. albicans pre-incubated with 100 nM peptide for two hours, IV injection, day 22
[4] = tested on: C. neoformans strain 40-71; experiment: C. elegans killing assay, C. neoformans infection; format: in vivo, Cryptococcus neoformans; settings: 1 nM peptide
RBCs = experiment: Hemolysis assay; format: cell-based, human; settings: for fractional hemolysis (Toxicity): Extended Fig 6A
Protocol: De-identified and pooled RBCs were purchased from Rockland Immunochemicals, Inc. RBCs were prepared at 6 × 10^7 cells/mL in PBS. To 25 μL of peptide diluted appropriately to result in a final concentration of 1 nM and 1 µM, 125 μL of RBC suspension was added. The plates were gently rocked for 1 h at room temperature. The cells were then removed from suspension by centrifugation at 1000 xg for 5 min. From the experimental plate, 100 μL of the supernatant was carefully withdrawn from each well and added to a new 96-well plate. The absorbance of the solutions in each well was measured at 410 nm and each well was compared to a no-treatment control and a 100% lysis control (1% SDS).

C. albicans [5] = experiment: C. albicans CFUs before and after two-hour pre-incubation with peptide; settings: 100 nM, two-hour incubation in PBS
Protocol: To increase the chances of observing an effect, we pre-incubated C. albicans with 100 nM of EntV or the 12mer for two hours prior to intravenous (IV) injection of 1 ×10^5 CFU.
The disseminated candidiasis model[59],[60] was performed by growing C. albicans SC5314 overnight in YPD at 30 °C, then diluting 1/100 and growing in a second overnight. The late-log phase culture was collected by centrifugation at 16,000 xg for 30 s, washed in PBS, and diluted to 5 × 10^6 cells/ml in PBS containing vehicle (0.01% DMSO) or 100 nM EntV or the 12mer peptide and incubated for 2 h at room temperature. Female ICR mice 6 wks, 18–20 g, 10/experimental group were inoculated via the lateral tail vein with 0.1 ml. Animals were monitored at least twice daily for 21 days for signs of moribundity.

C. albicans [6] = experiment: Mouse OPC model, fungal burden in tongue by qPCR; format: in vivo
C. albicans [7] = experiment: C. albicans adhesion assay (polystyrene plates, crystal violet); format: cell-based, Candida albicans; settings: for Adjusted avg / Avg Percent: Fig 3B, 10 nM, mean of 6 technical replicates; for Adjusted avg: background subtracted; for Avg Percent: relative adherence vs DMSO
Protocol: Similar to the methodology in[51], C. albicans strains were grown in YPD broth for 18 h at 30 °C with agitation and then subcultured for 4 h in the same conditions. […] The cell suspension was incubated for 1 h at 30 °C with agitation. Then 100 µl of the cell suspension was added to wells of a 96 well tissue culture treated polystyrene plate (Falcon) in addition to 100 µl of artificial saliva media[14],[52] containing the indicated concentrations of test compounds. The plate was then incubated at 37 °C for 90 min.
The adhered cell layer was then stained for 20 min with 40 µl of 0.08% crystal violet solution (diluted, Sigma). The crystal violet stain was removed, and the wells were then washed three times with sterile water. Adhered cells were then destained with 200 µl of 200 proof ethanol for 20 min, and 100 µl of the ethanol solution was transferred to a new well for analysis. The optical density at 595 nm (OD595) was measured using a Synergy H1 plate reader (BioTek) with Gen5 version 3.08 software (BioTek).

C. albicans [8] = experiment: Rat venous catheter model; format: in vivo; settings: rat jugular vein catheter, 20 nM, 24 h, n of three
Protocol: To quantitate fungal burden after 24 h, the catheter was removed, and 1 cm of the tip placed in a one milliliter of sterile 0.9% NaCl followed by vortexing. A 1:10 serial dilution of this wash fluid was plated on SDA and colonies counted after 24 h of growth at 35 °C. […] Serial ethanol washes and critical point drying were used to dry the segments before they were mounted, and palladium-gold coated.

C. albicans [9] = experiment: Mouse OPC model, epithelial (hyphal) invasion by histology; format: in vivo
[10] = Peptide serum stability assay; format: in vitro ADME, human
Protocol: One mL of RPMI supplemented with 10% (v/v) of human serum (type AB) were aliquoted and temperature-equilibrated at 37 °C for 15 min before adding a concentrated stock peptide solution resulting in a final peptide concentration of 100 µM. For each time point, 100 µL of the reaction solution was removed and added to 200 µL 96% ethanol for precipitation of serum proteins. The sample was cooled (4 °C) for 15 min and then spun at 18,000 g for 2 min to pellet the precipitated serum proteins. The reaction supernatant was analyzed using HPLC with absorbance detected at 280 nm. The peptide peak was detected first without serum treatment to assess the area under the curve for the peptide of interest. At each time point the area under the curve was calculated by HPLC and then divided by the untreated peptide area under the curve to determine the percent remaining.

[11] = 10 nM and 1 nM in drinking water

OC(Cn1cncn1)(Cn1cncn1)c1ccc(F)cc1F [Flu, fluconazole, reference compound]
Median survival (C. albicans AzR; trial 1): 8 days | Median survival (C. albicans AzR; trial 2): 6 days | Median survival (C. albicans AzS; in vivo): 11 days and 10 days

TNAAAAQQGGIICLLVVWLS [α7-disrupted]
Median survival (C. albicans [1]; Fig 2C, trial 1): 6 days | Median survival (C. albicans [1]; Fig 2C, trial 2): 6 days | Solubility [2]: 10 µM +

TNVGALWICGLAVIQAAQLS [α7-random]
Median survival (C. albicans [1]; Fig 2C, trial 1): 7 days | Median survival (C. albicans [1]; Fig 2C, trial 2): 7 days | Solubility [2]: 10 µM +

VAGQLALWAVQC [12aa]
Survival of mice at end of experiment (in words) (C. albicans [3]): about half the animals were still alive | Protection of C. elegans infected with C. neoformans (in words) [4]: protected C. neoformans infected worms from killing | Lysis of red blood cells (in words) (RBCs; 1 nM and 1 µM peptide, 6 x 10^7 RBC cells/mL in PBS, 1 h room temperature, absorbance 410 nm, n of 6, listed as 12mer): no lysis of red blood cells; also recorded: no toxicity | fractional hemolysis (Toxicity) (RBCs; 1nM, replicate 1): 0.01086 | fractional hemolysis (Toxicity) (RBCs; 1nM, replicate 2): 0.03086 | fractional hemolysis (Toxicity) (RBCs; 1nM, replicate 3): 0.01386 | fractional hemolysis (Toxicity) (RBCs; 1nM, replicate 4): 0.05786 | fractional hemolysis (Toxicity) (RBCs; 1uM, replicate 1): 0.04886 | fractional hemolysis (Toxicity) (RBCs; 1uM, replicate 2): 0.05786 | fractional hemolysis (Toxicity) (RBCs; 1uM, replicate 3): 0.03286 | fractional hemolysis (Toxicity) (RBCs; 1uM, replicate 4): 0.08286 | C. albicans CFUs before versus after incubation with peptide (in words) (C. albicans [5]): no significant difference | Fungal burden on the tongue (in words) (C. albicans [6]; [11]): only a slight reduction in fungal burden on the tongue | Fungal burden in the tongue (in words) (C. albicans [6]; 50 nM in drinking water, day 5): loss of efficacy in terms of fungal burden | Fungal burden in the tongue, established infection (in words) (C. albicans [6]; 100 nM in drinking water starting at day three, sacrificed on day five): significantly less fungal burden compared to both groups of untreated animals | Fungal burden in the tongue, C. albicans DNA by qPCR (in words) (C. albicans [6]; corticosteroid-suppressed mice, 100 nM in drinking water from inoculation, day 5, listed as 12mer): equally effective; also recorded: even more effective at reducing fungal burden than 4 µg/mL fluconazole | Median survival (C. albicans AzR; trial 1): 10 days | Median survival (C. albicans AzR; trial 2): 11 days | Protection of C. elegans against C. albicans infection (in words) (C. albicans [1]): as effective in protecting against C. albicans infection in the worm model and inhibiting surface adhesion as full-length EntV | Median survival (C. albicans [1]; Fig 3A, trial 1): 10.5 days | Median survival (C. albicans [1]; Fig 3A, trial 2): 10 days | Median survival (C. albicans [1]; Fig 3A, trial 3): 9.5 days | Median survival (C. albicans [1]; Fig 3E, trial 1): 11 days | Median survival (C. albicans [1]; Fig 3E, trial 2): 10 days | Median survival (C. albicans [1]; Fig 3E, trial 3): 10 days | Inhibition of C. albicans adhesion to polystyrene (in words) (C. albicans [7]; 1 h with peptide in PBS, then artificial saliva media 90 min, crystal violet): as effective in protecting against C. albicans infection in the worm model and inhibiting surface adhesion as full-length EntV | Adjusted avg (C. albicans [7]; biological replicate 1): 0.262 | Avg Percent (C. albicans [7]; biological replicate 1): 40.07% | Adjusted avg (C. albicans [7]; biological replicate 2): 0.408 | Avg Percent (C. albicans [7]; biological replicate 2): 48.28% | Adjusted avg (C. albicans [7]; biological replicate 3): 0.161 | Avg Percent (C. albicans [7]; biological replicate 3): 13.25% | Adjusted avg (C. albicans [7]; biological replicate 4): 0.232 | Avg Percent (C. albicans [7]; biological replicate 4): 27.81% | Median survival (C. albicans AzS; C. albicans AzS infected C. elegans, peptides 1 nM, fluconazole 4 ug/ml, Fig 4C, trial 1): 12 days | Median survival (C. albicans AzS; C. albicans AzS infected C. elegans, peptides 1 nM, fluconazole 4 ug/ml, Fig 4C, trial 2): 10.5 days | Solubility ([2]; Supplementary Table 2, printed as '10 µM +'): 10 µM + | Reduction of catheter fungal burden (C. albicans [8]): 1.5 logs | Invasion of the tongue epithelium (in words) (C. albicans [9]; [11]): the reduction in invasion remained dramatic | Hyphal invasion of the tongue (in words) (C. albicans [9]; 50 nM in drinking water, day 5): significant lowering of hyphal invasion | Hyphal invasion relative to fluconazole (in words) (C. albicans [9]; 100 nM and 500 nM in drinking water versus 4 µg/mL fluconazole, day 5): slightly less prevalent | Epithelial / hyphal invasion of the tongue (in words) (C. albicans [9]; mouse, in vivo, listed as 12mer): at least as effective as the full length EntV; also recorded: most reduced | stability in the presence of 10% human serum ([10]; 10% human serum, 0 Hrs, fraction relative to 0 Hrs, mean (SD) of n = 3): 1.0 (0.0) | remaining at 2 h ([10]; 10% human serum, 2 Hrs, fraction relative to 0 Hrs, mean (SD) of n = 3, read-out: stability in the presence of 10% human serum): 44.3% | remaining at 4 h ([10]; 10% human serum, 4 Hrs, fraction relative to 0 Hrs, mean (SD) of n = 3, read-out: stability in the presence of 10% human serum): 39.3% | remaining at 24 h ([10]; 10% human serum, 24 Hrs, fraction relative to 0 Hrs, mean (SD) of n = 3, read-out: stability in the presence of 10% human serum): 12.4% | Peptide detectable (percent remaining) in serum ([10]; RPMI with 10% (v/v) human serum (type AB), 37 °C, 100 µM peptide, 24-hour incubation, HPLC 280 nm, mean of n of 3): about 10% | Stability in serum (in words) ([10]; RPMI with 10% (v/v) human serum (type AB), 37 °C, 100 µM peptide, HPLC 280 nm, n of 3): not particularly stable in serum
